From patent publication US20250387388A1, “COMPOUND AS TRK INHIBITOR AND/OR RET INHIBITOR AND USE THEREOF” (Medinno Pharmaceutical Technology (Zhuhai) Co., Ltd., priority 2022, published 2025)

What was measured:
adipocytes = assay: Lipolysis in vitro in adipocytes; assay type: cell-based, C57BL/6 mouse; details: 5 μM
Protocol: Newly extracted neonatal C57BL/6 mouse skin fibroblasts (specific operational steps can be found in the literature: Cell Reports (2023)/doi: 10.1016/j.celrep.2023.112647) were plated and cultured in petri dishes until the cell density reached the highest and contact inhibition. Differentiation medium (DMEM+10% FBS+1× antibiotic; specific formula can be found in the literature: Cell Reports (2023)/doi: 10.1016/j.celrep.2023.112647) was then added to induce the generation of new adipocytes. […] The control group received an equal volume of DMSO. The transformation of adipocytes was observed using a Leica inverted phase contrast microscope.

[1] = test system: external hemorrhoids in rats; assay: External hemorrhoid model in rats (acetic acid); assay type: in vivo, SD rats
Excerpt: • (1) Blank control group (7 rats) • (2) Hemorrhoid model group (10 rats) • (3) Hemorrhoid model group+positive control drug (Mayinglong Hemorrhoid Ointment) group (8 rats) • (4) Hemorrhoid model group+vehicle treatment (Gel excipient) (8 rats) • (5) Hemorrhoids model group+0.1% MDI-1228 gel preparation group (8 rats) • (6) Hemorrhoids model group+0.3% MDI-1228 gel preparation group (8 rats) • (7) Hemorrhoids model group+1% MDI-1228 gel preparation group (8 rats) • (8) Hemorrhoids model group+3% MDI-1228 gel preparation group (8 rats) • Experimental environment: Temperature 20° C.-26° C., humidity 40%-70%
Apart from the normal control group, all groups were treated by first disinfecting the perianal skin. A 75% acetic acid solution was prepared and injected subcutaneously in a scattered pattern around the anus of each rat at a dose of 0.05 ml.
The recipe and preparation method for 1% MDI-1228 gel were as follows:
The control group and model group received no treatment (no therapy). Administration begined 24 hours after the model induction was successful. Group 3) was administrated with Mayinglong Hemorrhoid Ointment (7.5 g/Kg), three times, 10 min each time; Group 4) was administrated with a blank gel forming agent (1 g/Kg) around the anus; Groups 5)-8) were administrated with different concentrations of MDI-1228 compound gel preparation (1 g/Kg) around the anus, twice daily, 10 min each time, followed by covering with plastic wrap and fixing with tape to prevent the drug from falling off and affecting efficacy. After 6 hours, the dressing was removed, and the application site was cleaned with normal saline. The administration was continued for 11 days.
Observe the healing of the ulcer site on days 3, 5, 7, 9, and 11 of administration, and assess the ulcer score (scoring criteria: ulcer exudate present=1 point; minimal ulcer exudate=2 points; scab present, nearly healed=3 points; completely healed=4 points).
On an 11-day administration, animals were euthanized by inhalation of excess carbon dioxide, and perianal rectal tissue was taken for HE staining, and serum was taken for ELISA detection.
Tissue samples from animal Rectal were excised, fixed in 10% neutral formalin buffer solution, dehydrated, embedded in paraffin, and sectioned and HE stained for observation of rectal histopathological morphology changes. The reagents and instruments required for HE staining included: Hematoxylin staining solution (AR11800-1, BOSTER); Eosin staining solution (AR11800-2, BOSTER); Ultra-clean advanced mounting medium (YZB, BASO); Scott's blueing solution (G1865, Solarbio), etc. Medication refrigerator (BYC-310, Shandong Bokai Biotech); Microscope (CX41 OLYMPUS); Microtome (BQ-318D, Berne); Electric heating blast drying oven (DHG-9070A, Hengke Scientific Instrument Co., Ltd.). The taken tissue was rinsed with running water for several hours, dehydrated through a series of ethanol solutions (70%, 80%, 90%), and then treated with a mixture of pure alcohol and xylene at a ratio of 1:1 for 15 minutes, followed by xylene I for 15 minutes and xylene II for 15 minutes (until transparent). The tissue was then placed in a mixture of xylene and paraffin at a ratio of 1:1 for 15 minutes, followed by immersion with paraffin I and paraffin 11 each for 50-60 minutes. The tissue was embedded in paraffin and sectioned, and the sections were dried, dewaxed and hydrated in distilled water. […]

Compound: CCc1cc(O)c(F)cc1-c1ccc2c(-c3nc4c([nH]3)CN(C(=O)N3CC[C@H](O)C3)C4)n[nH]c2c1 [MDI-1228, (S)-(2-(6-(2-ethyl-5-fluoro-4-hydroxyphenyl)-1H-indazol-3-yl)-4,6-dihydropyrrolo[3,4-d]imidazol-5-(1H)-yl)(3-hydroxylpyrrolidin-1-yl)ketone]
- Lipolysis of differentiated mature adipocytes (phase contrast images) (adipocytes): promotes the lipolysis of adipocytes into smaller lipid droplets
- TNF-α expression in blood (ELISA) ([1]; 0.1%, 0.3%, 1%, 3% MDI-1228 gel, positive control drug, vs. model group): could all downregulate the expression of TNF-α
- Perianal ulcer healing score ([1]; 1% MDI-1228 gel 1 g/Kg twice daily, vs. model group): significant therapeutic effect after a 7-days administration
- Perianal rectal tissue HE staining pathological score ([1]; 3% MDI-1228 gel): the best effect
- Perianal rectal tissue HE staining pathological score ([1]; MDI-1228 gel at concentrations of 0.3% or more): more significant
- Alleviation and treatment of external hemorrhoids ([1]; MDI-1228 gel preparations at different concentrations): can effectively alleviate and treat external hemorrhoids in rats
